Experimental data: ChEMBL document CHEMBL4017490, “Design, Synthesis, and Pharmacological Evaluation of Novel Multisubstituted Pyridin-3-amine Derivatives as Multitargeted Protein Kinase Inhibitors for the Treatment of Non-Small Cell Lung Cancer” (J Med Chem, 2017)

Key:
[1] = Half life in CD-1 mouse at 5 mg/kg, iv by LC-MS/MS method; format: ADME, organism-based; details: in vivo
[2] = Tmax in Sprague-Dawley rat at 20 mg/kg, po by LC-MS/MS method; format: ADME, organism-based; details: in vivo
[3] = Tmax in Sprague-Dawley rat at 10 mg/kg, iv by LC-MS/MS method; format: ADME, organism-based; details: in vivo
[4] = Tmax in CD-1 mouse at 5 mg/kg, iv by LC-MS/MS method; format: ADME, organism-based; details: in vivo
[5] = Cmax in Sprague-Dawley rat at 20 mg/kg, po by LC-MS/MS method; format: ADME, organism-based; parameters: dose 20 mg/kg, route oral; details: in vivo
[6] = Cmax in CD-1 mouse at 20 mg/kg, po by LC-MS/MS method; format: ADME, organism-based; parameters: dose 20 mg/kg, route oral; details: in vivo
[7] = Cmax in CD-1 mouse at 5 mg/kg, iv by LC-MS/MS method; format: ADME, organism-based; parameters: dose 5 mg/kg, route intravenous; details: in vivo
[8] = AUC (0 to t) in Sprague-Dawley rat at 20 mg/kg, po by LC-MS/MS method; format: ADME, organism-based; details: in vivo
[9] = MRT in Sprague-Dawley rat at 20 mg/kg, po by LC-MS/MS method; format: ADME, organism-based; details: in vivo
[10] = AUC (0 to t) in Sprague-Dawley rat at 10 mg/kg, iv by LC-MS/MS method; format: ADME, organism-based; details: in vivo
[11] = AUC (0 to t) in CD-1 mouse at 20 mg/kg, po by LC-MS/MS method; format: ADME, organism-based; details: in vivo
[12] = AUC (0 to t) in CD-1 mouse at 5 mg/kg, iv by LC-MS/MS method; format: ADME, organism-based; details: in vivo
[13] = MRT in CD-1 mouse at 20 mg/kg, po by LC-MS/MS method; format: ADME, organism-based; details: in vivo
[14] = AUC (0 to infinity) in Sprague-Dawley rat at 20 mg/kg, po by LC-MS/MS method; format: ADME, organism-based; parameters: dose 20 mg/kg, route oral, time infinity; details: in vivo
[15] = AUC (0 to infinity) in Sprague-Dawley rat at 10 mg/kg, iv by LC-MS/MS method; format: ADME, organism-based; parameters: dose 10 mg/kg, time infinity, route intravenous; details: in vivo
[16] = AUC (0 to infinity) in CD-1 mouse at 20 mg/kg, po by LC-MS/MS method; format: ADME, organism-based; parameters: dose 20 mg/kg, time infinity, route oral; details: in vivo
[17] = AUC (0 to infinity) in CD-1 mouse at 5 mg/kg, iv by LC-MS/MS method; format: ADME, organism-based; parameters: dose 5 mg/kg, time infinity, route intravenous; details: in vivo
[18] = MRT in Sprague-Dawley rat at 10 mg/kg, iv by LC-MS/MS method; format: ADME, organism-based; details: in vivo
[19] = MRT in CD-1 mouse at 5 mg/kg, iv by LC-MS/MS method; format: ADME, organism-based; details: in vivo
[20] = Half life in Sprague-Dawley rat at 20 mg/kg, po by LC-MS/MS method; format: ADME, organism-based; details: in vivo
[21] = Half life in Sprague-Dawley rat at 10 mg/kg, iv by LC-MS/MS method; format: ADME, organism-based; details: in vivo
[22] = Half life in CD-1 mouse at 20 mg/kg, po by LC-MS/MS method; format: ADME, organism-based; details: in vivo
[23] = Apparent clearance in Sprague-Dawley rat at 10 mg/kg, iv by LC-MS/MS method; format: ADME, organism-based; details: in vivo, read-out: CL(app) (converted)
NCI-H1581 [24] = assay: Antitumor activity against human NCI-H1581 cells xenografted in nude mouse assessed as tumor growth inhibition at 5 mg/kg, po qd administered for 14 days measured twice per week during compound dosing; format: functional; details: 336 h, read-out: TGI
NCI-H1581 [25] = assay: Antitumor activity against human NCI-H1581 cells xenografted in nude mouse assessed as tumor growth inhibition at 20 mg/kg, po qd administered for 14 days measured twice per week during compound dosing; format: functional; details: 336 h, read-out: TGI
[26] = Protein binding in plasma (unknown origin); format: ADME, cell-free; details: read-out: PPB (converted)
[27] = Inhibition of FGFR3 mutant in human UM-UC-14 cells assessed as inhibition of cell proliferation after 72 hrs by cell counting kit-8 assay; format: cell-based; details: UMUC14, 72 h
Mus musculus [28] = assay: Toxicity in nude mouse xenografted with human NCI-H1581 cells assessed as emaciation at 20 mg/kg, po qd administered for 14 days; format: organism-based; details: in vivo, 336 h
Mus musculus [29] = assay: Toxicity in nude mouse xenografted with human NCI-H1581 cells assessed as diarrhea at 20 mg/kg, po qd administered for 14 days; format: organism-based; details: in vivo, 336 h
Mus musculus [30] = assay: Unbound Cmax in CD-1 mouse at 5 mg/kg, iv by LC-MS/MS method; format: ADME, organism-based; details: in vivo
Mus musculus [31] = assay: Unbound Cmax in CD-1 mouse at 20 mg/kg, po by LC-MS/MS method; format: ADME, organism-based; details: in vivo
Mus musculus [32] = assay: Toxicity in nude mouse xenografted with human NCI-H1581 cells assessed as body weight loss at 20 mg/kg, po qd administered for 14 days; format: organism-based; details: in vivo, 336 h
NCI-H1581 [33] = details: Homo sapiens
Description: Antitumor activity against human NCI-H1581 cells xenografted in po dosed nude mouse assessed as tumor growth inhibition administered as qd for 14 days measured twice per week during compound dosing

`Cc1n[nH]c2ccc(-c3cc(N[C@@H](CO)c4ccccc4)cnc3-c3cc(F)ccc3O)cc12` gave a half-life [1] of 150 min, a Tmax [2] of 1 h and a Tmax [3] of 15 min. The Tmax [4] was 1.5 h, the Cmax [5] was 2080 ng/mL and the Cmax [6] was 961 ng/mL. For the same molecule, the Cmax [7] was 106 ng/mL, the AUC(0-t) [8] was 16600 ng·h/mL and the MRT [9] was 6.72 h. For the same molecule, the AUC(0-t) [10] was 13700 ng·h/mL, the AUC(0-t) [11] was 2400 ng·h/mL and the AUC(0-t) [12] was 289 ng·h/mL. For the same molecule, the MRT [13] was 3.59 h, the AUC(0-inf) [14] was 18700 ng·h/mL and the AUC(0-inf) [15] was 13800 ng·h/mL. For the same molecule, the AUC(0-inf) [16] was 2410 ng·h/mL, the AUC(0-inf) [17] was 290 ng·h/mL and the MRT [18] was 3.41 h. The MRT [19] was 3.74 h, the half-life [20] was 480 min and the half-life [21] was 143 min. The half-life [22] was 163 min, the clearance [23] was 12.1 mL/min/kg and the inhibition in vivo at 5 mg/kg (NCI-H1581 [24]) was 37.8%. The inhibition in vivo at 20 mg/kg (NCI-H1581 [25]) was 66.1%, the fraction unbound [26] was 0.0044 and the IC50 [27] was 128 nM. The Activity (Mus musculus [28]) was “Toxic”, the Activity (Mus musculus [29]) was “Toxic” and the fCmax (Mus musculus [30]) was 1.1 nM. The fCmax (Mus musculus [31]) was 10.2 nM, the Activity (Mus musculus [32]) was “Toxic” and the TGI (NCI-H1581 [33]) was “Dose-dependent effect”.
